target: PAR4 (Homo sapiens (Human), UniProt Q96RI0); assay: PAR4 FLIPR assay (antagonism of agonist-peptide-induced calcium mobilization); format: cell-based; settings: H-Ala-Phe(4-F)-Pro-Gly-Trp-Leu-Val-Lys-Asn-Gly-NH2-induced intracellular calcium mobilization, PAR4-expressing HEK293 cells; read-out: PAR4 FLTPR assay (IC50)
Summary of the method: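 HEK293 cells stably expressing human PAR4 (also endogenous PAR1), loaded with fluorescent calcium indicator in HBSS/20 mM HEPES; compounds added at 0.17% DMSO, read on FDSS for agonism, then 30 min RT before H-Ala-Phe(4-F)-peptide agonist challenge. Potency from 11-point concentration-response curves.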

PAR4, sequence (Q96RI0 18-385): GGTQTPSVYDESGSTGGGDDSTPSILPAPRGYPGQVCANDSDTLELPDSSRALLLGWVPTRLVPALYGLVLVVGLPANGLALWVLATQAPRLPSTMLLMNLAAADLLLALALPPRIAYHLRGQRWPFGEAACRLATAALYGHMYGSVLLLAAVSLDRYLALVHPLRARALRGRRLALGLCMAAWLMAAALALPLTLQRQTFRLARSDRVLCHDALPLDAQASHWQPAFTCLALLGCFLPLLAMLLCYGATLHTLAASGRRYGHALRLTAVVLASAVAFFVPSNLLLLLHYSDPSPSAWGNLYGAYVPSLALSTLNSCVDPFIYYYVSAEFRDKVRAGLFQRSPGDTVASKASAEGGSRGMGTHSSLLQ

Row | SMILES | IC50 [nM]
1 | COC(=O)c1ncc(NC(=O)O[C@@H]2CCC[C@@H]2Oc2cc3sc(-c4cc(C)cc5nc(OC)cnc45)nc3cc2F)cn1 [Example 51, methyl 5-(((((1R,2S)-2-((5-fluoro-2-(2-methoxy-7-methylquinoxalin-5-yl)benzo[d]thiazol-6-yl)oxy)cyclopentyl)oxy)carbonyl)amino)pyrimidine-2-carboxylate] | 6.8
2 | COc1cnc2c(-c3nc4cc(F)c(O[C@H]5CC[C@H]5OC(=O)Nc5cnc(CCO)nc5)cc4s3)cc(C)cc2n1 [Example 65] | 3.7
3 | COc1cnc2c(-c3nc4cc(F)c(O[C@H]5CCC[C@H]5OC(=O)Nc5ncc(C)cn5)cc4s3)cc(C)cc2n1 [Example 26] | 83
4 | COc1cnc2c(-c3nc4cc(F)c(O[C@H]5CC(F)(F)CC[C@H]5OC(=O)Nc5cnc(CO)nc5)cc4s3)cc(C)cc2n1 [Example 10] | 23
5 | COc1cnc2c(-c3nc4cc(F)c(O[C@@H]5CC[C@@H]5OC(=O)Nc5cnc(OCCO)nc5)cc4s3)cc(C)cc2c1 (stereo in doubt) [Example 74, cis-2-((5-fluoro-2-(3-methoxy-6-methylquinolin-8-yl)benzo[d]thiazol-6-yl)oxy)cyclo butyl (2-(2-hydroxyethoxy)pyrimidin-5-yl)carbamate (Homochiral)] | 8.9
6 | COc1ccc(NC(=O)O[C@H]2CC[C@H]2Oc2cc3sc(-c4cc(C)cc5nc(OC)cnc45)nc3cc2F)cn1 [Example 72] | 1.1
7 | COc1cnc2c(-c3nc4cc(F)c(O[C@H]5CC(F)(F)CC[C@H]5OC(=O)Nc5ccnc(OCCC(C)(C)O)c5)cc4s3)cc(C)cc2n1 [Example 8] | 1.2
8 | COc1cnc2c(-c3nc4cc(F)c(O[C@H]5CCC[C@H]5OC(=O)Nc5cnc(C(N)=O)nc5)cc4s3)cc(C)cc2n1 [Example 52, (1R,2S)-2-((5-fluoro-2-(2-methoxy-7-methylquinoxalin-5-yl)benzo[d]thiazol-6-yl)oxy)cyclopentyl (2-carbamoylpyrimidin-5-yl)carbamate] | 2.5
9 | COc1ccc(NC(=O)O[C@@H]2CCC[C@@H]2Oc2cc3sc(-c4cc(C)cc5nc(OC)cnc45)nc3cc2F)cc1 [Example 25] | 1.3
10 | COc1cnc2c(-c3nc4cc(F)c(O[C@H]5CCC[C@H]5OC(=O)Nc5ccc(CO)nc5)cc4s3)cc(C)cc2n1 [Example 31] | 1.1

same assay, conditions: H-Ala-Phe(4-F)-[…]NH2-induced intracellular calcium mobilization, PAR4-expressing HEK293 cells; read-out: PAR4 FLTPR assay (IC50)

Row | SMILES | IC50 [nM]
11 | COc1cnc2c(-c3nc4cc(F)c(O[C@@H]5CC[C@@H]5OC(=O)Nc5cnc(OCCO)nc5)cc4s3)cc(C)cc2n1 (racemic) [Example 71] | 1.6
12 | COc1cnc2c(-c3nc4cc(F)c(O[C@@H]5CCCC[C@@H]5OC(=O)Nc5ccncc5)cc4s3)cc(C)cc2n1 (racemic) [Example 56, rac-cis-2-((5-fluoro-2-(2-methoxy-7-methylquinoxalin-5-yl)benzo[d]thiazol-6-yl)oxy) cyclohexyl pyridin-4-ylcarbamate] | 1.8

— US10730868B2, “Bicyclic heteroaryl substituted compounds” (BRISTOL-MYERS SQUIBB COMPANY, priority 2016, dated 2020)
